Reference: patent US8642657B2 (Gruenenthal GmbH, priority 2003, dated 2014)

Tests used:
rat VR1 [1] = target: T1, rat VR1 (Rattus norvegicus, UniProt O35433); settings: rat VR1 expressed in CHO cells; cited from earlier work
T1 construct: expressed in transfected cells

rat VR1 [2] = target: T1, rat VR1; assay: 45Ca2+-uptake assay in CHO/VR1 cells, antagonism of capsaicin-stimulated uptake; assay type: cell-based; settings: 45Ca2+ uptake stimulated by 50 nM capsaicin
rat VR1 [3] = target: T1, rat VR1; assay: [3H]resiniferatoxin (RTX) competition binding assay, VR1-transfected CHO cells; settings: competition with [3H]RTX, rat VR1 in CHO cells; read-out: Ki (nM) Binding Affinity
Outline: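 Competition with [3H]RTX (50-100 pM) ran 60 min at 37° C using whole VR1-induced CHO cells in BSA-containing DPBS, nonspecific defined by 100 nM cold RTX. After centrifugation, pellet radioactivity counted by scintillation; Hill fits gave Ki and cooperativity.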

T1 sequence (O35433 whole entry): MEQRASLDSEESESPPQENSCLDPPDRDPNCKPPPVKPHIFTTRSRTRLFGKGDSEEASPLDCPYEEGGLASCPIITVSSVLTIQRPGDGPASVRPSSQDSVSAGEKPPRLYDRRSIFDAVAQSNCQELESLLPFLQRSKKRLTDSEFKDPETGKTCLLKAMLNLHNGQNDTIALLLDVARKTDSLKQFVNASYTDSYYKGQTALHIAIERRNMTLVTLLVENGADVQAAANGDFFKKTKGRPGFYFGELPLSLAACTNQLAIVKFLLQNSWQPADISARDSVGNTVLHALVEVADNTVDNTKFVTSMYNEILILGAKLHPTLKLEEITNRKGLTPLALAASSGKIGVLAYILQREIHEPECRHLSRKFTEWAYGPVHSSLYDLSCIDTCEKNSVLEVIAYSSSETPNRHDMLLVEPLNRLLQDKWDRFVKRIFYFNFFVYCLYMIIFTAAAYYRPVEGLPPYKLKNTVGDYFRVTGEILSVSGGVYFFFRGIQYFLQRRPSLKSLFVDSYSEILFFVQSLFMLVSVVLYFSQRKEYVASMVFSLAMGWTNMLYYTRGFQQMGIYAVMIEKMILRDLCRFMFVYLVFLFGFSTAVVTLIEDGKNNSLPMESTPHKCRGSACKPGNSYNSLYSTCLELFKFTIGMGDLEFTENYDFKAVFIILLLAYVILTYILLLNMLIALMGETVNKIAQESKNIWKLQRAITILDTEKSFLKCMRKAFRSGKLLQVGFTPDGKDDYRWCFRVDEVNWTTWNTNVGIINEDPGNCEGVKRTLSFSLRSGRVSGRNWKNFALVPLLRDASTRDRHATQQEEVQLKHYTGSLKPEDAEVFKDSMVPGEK

SMILES	agonism/antagonism character (rat VR1 [1])	melting point [°C]	Ki (rat VR1 [2]) [nM]	Ki (rat VR1 [3]) [nM]
Cc1ccc(CC(CNC(=S)NCc2ccc(NS(C)(=O)=O)cc2)COC(=O)C(C)(C)C)cc1C (stereo not shown) [Compound 1, N-[2-(3,4-dimethylbenzyl)-3-pivaloyloxypropyl]-N′-[4-(methylsulfonylamino)benzyl]thiourea]	partial agonism	–	–	–
COc1cc(C2(NC(=S)NCc3ccc(C(C)(C)C)cc3)CC2)ccc1NS(C)(=O)=O [22-9, N-(4-t-Butylbenzyl)-N′-{1-[3-methoxy-4-(methylsulfonylamino)phenyl]cyclopropyl}thiourea]	–	100 to 103	243	372
COc1cc(C(C)C(=O)NCC(COC(=O)C(C)(C)C)Cc2ccc(C)c(C)c2)ccc1NS(C)(=O)=O (stereo not shown) [5-5, N-[2-(3,4-Dimethylbenzyl)-3-pivaloyloxypropyl]-2-[3-methoxy-4-(methylsulfonylamino)phenyl]propionamide]	–	54 to 57	13.6	71.2
CC(C(=O)NCc1ccc(C(C)(C)C)cc1)c1ccc(NS(C)(=O)=O)c(Br)c1 (stereo not shown) [1-53, N-(4-tert-Butylbenzyl)-2-[3-bromo-4-(methylsulfonylamino)phenyl]propionamide]	–	66 to 67	24.9	7.41
